Key:
[1] = Biodistribution in orally dosed cynomolgus monkey urine assessed as 8-hydroxy-O-demethyl muraglitazar level by LC/MS analysis; format: ADME, organism-based, Macaca fascicularis; conditions: in vivo, po
Hepatocyte [2] = assay: Metabolic stability in Sprague-Dawley rat hepatocytes assessed as 17-hydroxy muraglitazar level by LC/MS analysis relative to control; format: ADME, cell-based
[3] = Drug concentration in bile duct-cannulated CD1 mouse urine assessed as recovery of radioactive dose at 1 mg/kg, po after 24 hrs; format: ADME, organism-based; set-up: dose 1 mg/kg, route oral; conditions: in vivo
[4] = Biodistribution in orally dosed Beagle dog feces assessed as 8-hydroxy muraglitazar level by LC/MS analysis; format: ADME, organism-based, Canis lupus familiaris; conditions: in vivo, po
Hepatocyte [5] = assay: Metabolic stability in human hepatocytes assessed as 8-hydroxy-O-demethyl muraglitazar level by LC/MS analysis relative to control; format: ADME, cell-based
Rattus norvegicus [6] = assay: Biodistribution in orally dosed Sprague-Dawley rat feces assessed as 12-hydroxy-O-demethyl muraglitazar level by LC/MS analysis; format: ADME, organism-based; conditions: in vivo, po
[7] = Drug concentration in human feces assessed as recovery of radioactive dose at 10 mg, po after 240 hrs; format: ADME, organism-based; conditions: in vivo
Plasma [8] = assay: Biodistribution in orally dosed Beagle dog plasma assessed as 12-dihydroxy muraglitazar level after 1 hr by LC/MS analysis; format: ADME, organism-based, Canis lupus familiaris; conditions: in vivo, po
[9] = Metabolic stability in cynomolgus monkey hepatocytes assessed as di-oxygenated muraglitazar level by LC/MS analysis relative to control; format: ADME, cell-based, Macaca fascicularis, Hepatocyte
[10] = Fecal excretion rate in orally dosed Beagle dog within 24 hrs; format: ADME, organism-based, Canis lupus familiaris; conditions: faeces, po, read-out: Activity
Hepatocyte [11] = assay: Metabolic stability in Sprague-Dawley rat hepatocytes assessed as 8-hydroxy muraglitazar level by LC/MS analysis relative to control; format: ADME, cell-based
[12] = Drug concentration in bile duct-cannulated Sprague-Dawley rat urine assessed as recovery of radioactive dose at 11 mg/kg, po after 24 hrs; format: ADME, organism-based; set-up: dose 11 mg/kg, route oral; conditions: in vivo
[13] = Half life in human at 10 mg, po after 72 hrs; format: ADME, organism-based; conditions: in vivo
[14] = Biodistribution in orally dosed Beagle dog feces assessed as imide derivative of muraglitazar level by LC/MS analysis; format: ADME, organism-based, Canis lupus familiaris; conditions: in vivo, po
[15] = Drug concentration in bile duct-cannulated CD1 mouse bile assessed as recovery of radioactive dose at 40 mg/kg, po after 24 hrs; format: ADME, organism-based; set-up: dose 40 mg/kg, route oral; conditions: in vivo
[16] = Metabolic stability in CD1 mouse hepatocytes assessed as 17-hydroxy-O-demethyl muraglitazar level by LC/MS analysis relative to control; format: ADME, cell-based, Hepatocyte
Plasma [17] = assay: Biodistribution in orally dosed cynomolgus monkey plasma assessed as 12-dihydroxy muraglitazar level after 4 hrs by LC/MS analysis; format: ADME, organism-based, Macaca fascicularis; conditions: in vivo, po
[18] = Biodistribution in orally dosed cynomolgus monkey urine assessed as O-demethyl muraglitazar glucuronide level by LC/MS analysis; format: ADME, organism-based, Macaca fascicularis; conditions: in vivo, po
[19] = Biodistribution in orally dosed cynomolgus monkey urine assessed as 17-hydroxy muraglitazar level by LC/MS analysis; format: ADME, organism-based, Macaca fascicularis; conditions: in vivo, po
[20] = Biodistribution in orally dosed cynomolgus monkey feces assessed as 9-hydroxy-O-demethyl muraglitazar level by LC/MS analysis; format: ADME, organism-based, Macaca fascicularis; conditions: in vivo, po
[21] = Drug concentration in human urine assessed as recovery of radioactive dose at 10 mg, po after 240 hrs; format: ADME, organism-based; conditions: in vivo
Plasma [22] = assay: Biodistribution in orally dosed cynomolgus monkey plasma assessed as 12-dihydroxy muraglitazar level after 1 hr by LC/MS analysis; format: ADME, organism-based, Macaca fascicularis; conditions: in vivo, po
[23] = Half life in Sprague-Dawley rat at 10 mg/kg, po after 24 hrs; format: ADME, organism-based; set-up: dose 10 mg/kg, route oral; conditions: in vivo
Plasma [24] = assay: Biodistribution in orally dosed Beagle dog plasma assessed as O-Dealkyl muraglitazar level after 12 hrs by LC/MS analysis; format: ADME, organism-based, Canis lupus familiaris; conditions: in vivo, po
[25] = Metabolic stability in CD1 mouse hepatocytes assessed as di-oxygenated muraglitazar level by LC/MS analysis relative to control; format: ADME, cell-based, Hepatocyte
Plasma [26] = assay: Biodistribution in orally dosed cynomolgus monkey plasma assessed as 12,17-dihydroxy muraglitazar level after 4 hrs by LC/MS analysis; format: ADME, organism-based, Macaca fascicularis; conditions: in vivo, po
[27] = Metabolic stability in cynomolgus monkey hepatocytes assessed as hydroxyl-O-demethyl muraglitazar glucuronide level by LC/MS analysis relative to control; format: ADME, cell-based, Macaca fascicularis, Hepatocyte
[28] = Biodistribution in orally dosed human urine assessed as muraglitazar glucuronide level by LC/MS analysis; format: ADME, organism-based; conditions: in vivo, po
Plasma [29] = assay: Biodistribution in orally dosed Beagle dog plasma assessed as 12-dihydroxy muraglitazar level after 12 hrs by LC/MS analysis; format: ADME, organism-based, Canis lupus familiaris; conditions: in vivo, po
[30] = Metabolic stability in cynomolgus monkey hepatocytes assessed as radioactivity recovaries at 25.6 ug/mL after 4 hrs; format: ADME, cell-based, Macaca fascicularis, Hepatocyte
[31] = Biodistribution in orally dosed human feces assessed as 12-hydroxy-O-demethyl muraglitazar level by LC/MS analysis; format: ADME, organism-based; conditions: in vivo, po
Rattus norvegicus [32] = assay: Biodistribution in orally dosed Sprague-Dawley rat urine assessed as O-demethyl muraglitazar glucuronide level by LC/MS analysis; format: ADME, organism-based; conditions: in vivo, po
Hepatocyte [33] = assay: Metabolic stability in Sprague-Dawley rat hepatocytes assessed as O-Dealkyl muraglitazar level by LC/MS analysis relative to control; format: ADME, cell-based
Plasma [34] = assay: Biodistribution in orally dosed Beagle dog plasma assessed as 12-hydroxy-O-demethyl muraglitazar level after 4 hrs by LC/MS analysis; format: ADME, organism-based, Canis lupus familiaris; conditions: in vivo, po
Plasma [35] = assay: Biodistribution in orally dosed cynomolgus monkey plasma assessed as 8-hydroxy-O-demethyl muraglitazar level after 4 hrs by LC/MS analysis; format: ADME, organism-based, Macaca fascicularis; conditions: in vivo, po
Rattus norvegicus [36] = assay: Biodistribution in orally dosed Sprague-Dawley rat urine assessed as O-dealkyl muraglitazar level by LC/MS analysis; format: ADME, organism-based; conditions: in vivo, po
[37] = Biodistribution in orally dosed cynomolgus monkey feces assessed as 12-hydroxy muraglitazar level by LC/MS analysis; format: ADME, organism-based, Macaca fascicularis; conditions: in vivo, po
[38] = Biodistribution in orally dosed Beagle dog feces assessed as 9-hydroxy muraglitazar level by LC/MS analysis; format: ADME, organism-based, Canis lupus familiaris; conditions: in vivo, po
Hepatocyte [39] = assay: Metabolic stability in Sprague-Dawley rat hepatocytes assessed as O-dealkyl-O-demethyl muraglitazar level by LC/MS analysis relative to control; format: ADME, cell-based
[40] = Biodistribution in orally dosed human feces assessed as 17-hydroxy-O-demethyl muraglitazar level by LC/MS analysis; format: ADME, organism-based; conditions: in vivo, po
Plasma [41] = assay: Biodistribution in orally dosed cynomolgus monkey plasma assessed as O-Dealkyl muraglitazar level after 4 hrs by LC/MS analysis; format: ADME, organism-based, Macaca fascicularis; conditions: in vivo, po
Hepatocyte [42] = assay: Metabolic stability in Sprague-Dawley rat hepatocytes assessed as muraglitazar 12-carboxylic acid level by LC/MS analysis relative to control; format: ADME, cell-based
[43] = Biodistribution in orally dosed human urine assessed as O-dealkyl-O-demethyl muraglitazar level by LC/MS analysis; format: ADME, organism-based; conditions: in vivo, po
[44] = Drug concentration in bile duct-cannulated cynomolgus monkey urine assessed as recovery of radioactive dose at 5 mg/kg, po after 48 hrs; format: ADME, organism-based, Macaca fascicularis; set-up: dose 5 mg/kg, route oral; conditions: in vivo
[45] = Biodistribution in orally dosed cynomolgus monkey feces assessed as O-dealkyl muraglitazar level by LC/MS analysis; format: ADME, organism-based, Macaca fascicularis; conditions: in vivo, po
[46] = Biodistribution in orally dosed human feces assessed as 9-hydroxy-O-demethyl muraglitazar level by LC/MS analysis; format: ADME, organism-based; conditions: in vivo, po
[47] = Metabolic stability in cynomolgus monkey hepatocytes assessed as O-demethyl muraglitazar level by LC/MS analysis relative to control; format: ADME, cell-based, Macaca fascicularis, Hepatocyte
[48] = Metabolic stability in CD1 mouse hepatocytes assessed as radioactivity recovaries at 25.6 ug/mL after 4 hrs; format: ADME, cell-based, Hepatocyte
[49] = Biodistribution in orally dosed Beagle dog feces assessed as 12-hydroxy muraglitazar level by LC/MS analysis; format: ADME, organism-based, Canis lupus familiaris; conditions: in vivo, po
Hepatocyte [50] = assay: Metabolic stability in human hepatocytes assessed as O-demethyl muraglitazar level by LC/MS analysis relative to control; format: ADME, cell-based
Plasma [51] = assay: Biodistribution in orally dosed Beagle dog plasma assessed as O-demethyl muraglitazar level after 12 hrs by LC/MS analysis; format: ADME, organism-based, Canis lupus familiaris; conditions: in vivo, po
[52] = Metabolic stability in cynomolgus monkey hepatocytes assessed as muraglitazar glucuronide level by LC/MS analysis relative to control; format: ADME, cell-based, Macaca fascicularis, Hepatocyte

Question: For `COc1ccc(OC(=O)N(CC(=O)O)Cc2ccc(OCCc3nc(-c4ccccc4)oc3C)cc2)cc1` [MURAGLITAZAR], which Drug uptake [1] is on record?
Answer: 0.08%

Question: And the Drug uptake (Hepatocyte [2])?
Answer: 2%

Question: And the Drug uptake [3]?
Answer: 8.3%

Question: And the Drug uptake [4]?
Answer: 0.18%

Question: What about the Drug uptake (Hepatocyte [5]) of the same compound?
Answer: < 0.2%

Question: What about the Drug uptake (Rattus norvegicus [6]) of the same compound?
Answer: 2.63%

Question: What about the Drug uptake [7] of the same compound?
Answer: 61.6%

Question: What about the Drug uptake (Plasma [8]) of the same compound?
Answer: 1%

Question: What about the Drug uptake [9] of the same compound?
Answer: 1.3%

Question: And the dose excreted at 24 h [10]?
Answer: 85%

Question: What about the Drug uptake (Hepatocyte [11]) of the same compound?
Answer: < 0.2%

Question: And the Drug uptake [12]?
Answer: 0.98%

Question: And the half-life [13]?
Answer: 19.8 h

Question: And the Drug uptake [14]?
Answer: 0.89%

Question: And the Drug uptake [15]?
Answer: 66%

Question: And the Drug uptake [16]?
Answer: 0.3%

Question: What about the Drug uptake (Plasma [17]) of the same compound?
Answer: 1.6%

Question: What about the Drug uptake [18] of the same compound?
Answer: < 0.01%

Question: And the Drug uptake [19]?
Answer: 0.59%

Question: And the Drug uptake [20]?
Answer: 0.32%

Question: And the Drug uptake [21]?
Answer: 2.6%

Question: And the Drug uptake (Plasma [22])?
Answer: 0.9%

Question: What about the half-life [23] of the same compound?
Answer: 3.8 h

Question: And the Drug uptake (Plasma [24])?
Answer: 9%

Question: And the Drug uptake [25]?
Answer: 1.4%

Question: And the Drug uptake (Plasma [26])?
Answer: 1.5%

Question: And the Drug uptake [27]?
Answer: < 0.2%

Question: And the Drug uptake [28]?
Answer: 1%

Question: And the Drug uptake (Plasma [29])?
Answer: 9%

Question: And the Stability [30]?
Answer: 99.2%

Question: And the Drug uptake [31]?
Answer: 11.45%

Question: What about the Drug uptake (Rattus norvegicus [32]) of the same compound?
Answer: < 0.01%

Question: What about the Drug uptake (Hepatocyte [33]) of the same compound?
Answer: 12%

Question: What about the Drug uptake (Plasma [34]) of the same compound?
Answer: 1%

Question: What about the Drug uptake (Plasma [35]) of the same compound?
Answer: 0.1%

Question: And the Drug uptake (Rattus norvegicus [36])?
Answer: 0.22%

Question: What about the Drug uptake [37] of the same compound?
Answer: 7.24%

Question: What about the Drug uptake [38] of the same compound?
Answer: 0.85%

Question: What about the Drug uptake (Hepatocyte [39]) of the same compound?
Answer: 0.3%

Question: What about the Drug uptake [40] of the same compound?
Answer: 1.48%

Question: And the Drug uptake (Plasma [41])?
Answer: 0.3%

Question: And the Drug uptake (Hepatocyte [42])?
Answer: < 0.2%

Question: What about the Drug uptake [43] of the same compound?
Answer: 0.04%

Question: What about the Drug uptake [44] of the same compound?
Answer: 5%

Question: And the Drug uptake [45]?
Answer: 2.81%

Question: What about the Drug uptake [46] of the same compound?
Answer: 2.21%

Question: And the Drug uptake [47]?
Answer: 2.1%

Question: What about the Stability [48] of the same compound?
Answer: 95.6%

Question: What about the Drug uptake [49] of the same compound?
Answer: 1.1%

Question: What about the Drug uptake (Hepatocyte [50]) of the same compound?
Answer: 2.3%

Question: And the Drug uptake (Plasma [51])?
Answer: 9%

Question: What about the Drug uptake [52] of the same compound?
Answer: 1.7%

Reference: ChEMBL document CHEMBL1147043, “Comparative metabolism of radiolabeled muraglitazar in animals and humans by quantitative and qualitative metabolite profiling” (Drug Metab Dispos, 2007)
